One series has as its target T1, Pol η (Homo sapiens, UniProt Q9Y253).
T1 construct: purchased EnzyMax
T1 sequence (Q9Y253 1-713): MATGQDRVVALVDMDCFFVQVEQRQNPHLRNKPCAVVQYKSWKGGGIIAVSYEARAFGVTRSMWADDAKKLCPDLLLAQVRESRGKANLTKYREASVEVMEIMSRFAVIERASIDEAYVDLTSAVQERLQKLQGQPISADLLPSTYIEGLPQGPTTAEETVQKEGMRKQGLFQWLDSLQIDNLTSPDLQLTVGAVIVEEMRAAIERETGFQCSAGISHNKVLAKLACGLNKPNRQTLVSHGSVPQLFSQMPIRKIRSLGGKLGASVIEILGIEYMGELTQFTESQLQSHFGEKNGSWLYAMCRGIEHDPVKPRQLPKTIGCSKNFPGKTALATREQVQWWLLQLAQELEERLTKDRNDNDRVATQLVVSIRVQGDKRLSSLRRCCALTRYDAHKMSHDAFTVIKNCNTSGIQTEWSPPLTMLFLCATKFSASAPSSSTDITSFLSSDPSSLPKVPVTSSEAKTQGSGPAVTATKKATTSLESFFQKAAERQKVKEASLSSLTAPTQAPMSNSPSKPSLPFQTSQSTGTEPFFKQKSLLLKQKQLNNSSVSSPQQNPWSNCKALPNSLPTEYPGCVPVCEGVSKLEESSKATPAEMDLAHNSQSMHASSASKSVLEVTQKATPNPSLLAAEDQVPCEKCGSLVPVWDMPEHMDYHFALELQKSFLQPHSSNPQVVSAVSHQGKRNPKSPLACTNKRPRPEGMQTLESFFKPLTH
Kind of series: primer extension assay (Pol η). Format: biochemical. As to conditions: 10 μM. On the procedure: (§1) A 10× working solution of 14 (5 or 100 μM) was prepared in 1:1 MeCN/H2O. A 10× preincubation mixture was prepared by mixing a 50× working solution of polymerase (250 nM) with an aliquot of the inhibitor (5 or 100 μM, 10×) in 1× reaction buffer (50 mM Tris·HCl, 50 mM NaCl, 5 mM MgCl2, 5 mM DTT, 0.1 mg/mL BSA, 10% glycerol, pH 7.5) (see Table 19 for volumes). The concentration of the preincubation mixture was 50 nM polymerase (10×) and 0, 0.5 or 10 μM 14 (1×).
(§2) The samples containing 50 nM polymerase and 14 (0, 0.5, or 10 μM) were preincubated at 25° C. for 20 min. After preincubation, an aliquot (2 μL, pol η or 3 μL, pol λ) was diluted with 10× ternary complex (pol η: 2 μL, 500 nM D4 or pol λ: 3 μL, 100 nM TC5), 10× dNTPs (5 mM; 2 μL, pol η or 3 μL, pol λ), and 1× reaction buffer (14 μL., pol η or 21 μL, pol λ) (see Table 20 for volumes). While the samples were incubated at 37° C., aliquots (pol η: 0, 2, 5, 10, 15, 20 min, 3 μL or pol λ: 0, 5, 15, 20, 30 min, 5 μL) were removed and quenched by the addition of 95% formamide, 20 mM EDTA loading buffer (10 μL). Aliquots were heated at 95° C. for 5 min, spun down, and loaded onto a 20% denaturing PAGE and run for 4 h at 55 watts. The gel was exposed in a radiography cassette, which was scanned using a Phosphorimager.

The next series addresses T2, Pol λ (Homo sapiens, UniProt Q9UGP5).
T2 sequence (Q9UGP5 1-575): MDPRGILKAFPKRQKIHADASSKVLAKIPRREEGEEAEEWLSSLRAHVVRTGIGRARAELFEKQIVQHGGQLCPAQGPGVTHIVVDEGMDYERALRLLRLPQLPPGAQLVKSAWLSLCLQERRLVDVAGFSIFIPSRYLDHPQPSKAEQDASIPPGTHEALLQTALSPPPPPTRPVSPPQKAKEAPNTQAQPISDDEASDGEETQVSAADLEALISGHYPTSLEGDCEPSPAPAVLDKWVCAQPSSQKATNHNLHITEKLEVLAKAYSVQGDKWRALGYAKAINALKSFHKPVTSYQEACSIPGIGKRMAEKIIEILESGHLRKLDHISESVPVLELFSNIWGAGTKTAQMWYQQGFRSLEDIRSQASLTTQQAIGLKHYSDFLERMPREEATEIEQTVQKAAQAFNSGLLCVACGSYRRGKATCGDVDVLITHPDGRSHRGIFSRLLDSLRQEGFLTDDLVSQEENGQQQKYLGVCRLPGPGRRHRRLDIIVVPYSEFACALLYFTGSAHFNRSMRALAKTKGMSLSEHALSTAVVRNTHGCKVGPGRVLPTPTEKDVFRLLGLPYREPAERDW
Kind of series: primer extension assay (Pol λ). It is filed as biochemical. The following applies: 10 μM. How it is done:
as §1, §2

The test system of series [1] is MEFs lacking Pol β (Pol β−/−). Kind of series: cell viability assay for MEFs lacking Pol β. It is filed as cell-based, mouse. As to conditions: MMS alone.
Protocol: Mouse embryonic fibroblasts (Pol β1 WT, Pol β−/−, Pol λ WT, Pol λ−/−, Pol β−/λ−) were seeded at a density of ˜0.3×10^6 cells/well in 6-well dishes. […] Control wells were treated with an equal volume of vector (50% MeCN in H2O). Cells were washed with 1×PBS and fresh medium was added. Dishes were incubated for 5 days at 34° C. in a 10% CO2 incubator until untreated control cells were approximately 80% confluent. Cells (triplicate wells for each treatment concentration were counted by a cell lysis procedure (described previously), and the results were expressed as the surviving fraction of cells in drug-treated wells relative to control wells.
Another series concerns UWB1.289+BRCA1. Kind of series: clonogenic assay, BRCA1 complemented ovarian cancer cells. Format: cell-based.
Another series has as its system MDA-MB-436. Briefly: clonogenic assay, BRCA1 deficient breast cancer cells. It is filed as cell-based. As to conditions: 1 h. How it is done: (§3) The medium was removed, and the cells were resuspended in fresh media (10 mL). […] The excess dye was removed by washing with water twice.
The test system of a further series is UWB1.289 (BRCA1−/−). Kind of series: clonogenic assay, BRCA1 deficient ovarian cancer cells. Format: cell-based. The following applies: 1 μM. How it is done: as §3
UWB1.289 cells (6×106) were seeded with RPMI 1640/MEGM medium (10 mL) into a 100 mm plate prior to transfection so cells would be adherent and ˜80% confluent on the first day of transfection, which was determined by manual inspection. Transfection was completed as follows: • 1. Lipofectamine RNAiMAX (60 μL) was diluted in Opti-MEM reduced serum medium to 1 mL. • 2. In a separate tube, siRNA (either siNT or siPol β, 10 μM, 60 μL, […]) was diluted in Opti-MEM (500 μL). • 3. The Lipofectamine solution was split (2×500 μL aliquots) and mixed with either siNT or siPol β solution to form the lipid-RNA complex at 25° C. for 5 min. • 4. The RPMI 1640/MEGM medium was removed and replaced with Opti-MEM medium (9 mL). After 5 min incubation, the lipid-RNA solution (1 mL) was added to the cells. Cells were incubated at 37° C. in a 5% CO2 humidified incubator. The following day, steps 1-3 were repeated. and the resulting 2×500 μL solutions were added to the existing cells that had been incubating at 37° C., 5% CO2 for 24 h. Transfected cells were allowed to incubate for an additional 48 h at 37° C., 5% CO2 after the second addition of siRNA. […]

The test system of the next series is MCF-7. Kind of series: clonogenic assay, BRCA1 proficient breast cancer cells. As to conditions: 1 h. Format: cell-based. How it is done:
as §3

A further series addresses DNA polymerase β (Pol β) (Homo sapiens, UniProt P06746). The following applies: 30 min preincubation; Paul et al.; cited from earlier work.

With `O=C(NC1CC(n2cc(CNC(=O)c3cc4cc(Br)ccc4c(Br)c3O)c(=O)[nH]c2=O)OC1COP(=O)(O)OCC1CC(O)OC1O)c1cc(-c2ccc(Cl)cc2)oc1C(F)(F)F` (stereo not drawn) [Compound 14], the “Pol η activity retained” value at Pol η is recorded as “approximately 50%”. The “Pol λ activity relative to untreated enzyme” value on Pol λ is “more than 25%”.

Take `COS(C)(=O)=O` [MMS, methyl methanesulfonate]: in series [1], the “toxicity compared with WT MEFs” value is reported as “considerably more toxic”.

Consider `O=C(c1cc(Cc2n[nH]c(=O)c3ccccc23)ccc1F)N1CCN(C(=O)C2CC2)CC1` [Olaparib], for which the toxicity result in the series with UWB1.289+BRCA1 (1 h treatment) is on record as “modestly toxic”. The “cytotoxicity upon prolonged treatment, compared with pro-1” value with UWB1.289+BRCA1 (time course) was “more cytotoxic”. The “cell killing compared with pro-1” value in the series on MDA-MB-436 is “more effective at killing BRCA1−/− cells at a lower concentration”. For the same molecule, the “cytotoxicity as a function of treatment time” value in the series with UWB1.289 (BRCA1−/−) is reported as “proportional to incubation time”. Besides, the “toxicity compared with pro-1” value in the series on MCF-7 is listed as “more toxic”.

`COc1cc(Cl)c(C=NOC2CC(n3cc(CNC(=O)c4cc5cccc(O)c5cc4O)c(=O)[nH]c3=O)OC2COP(=O)(O)OCC2CC(O)OC2O)c(Cl)c1O` (stereo not drawn) [Compound 2]: on DNA polymerase β (Pol β), the IC50 is 400 nM.
